Reference: PubChem BioAssay AID1645863 (Buhrlage Lab, Dana-Farber Cancer Institute and Novartis …, 2021)
Calls of active or inactive are those of the source. The rule behind the calls is not given here.

Molecular target: Ubiquitin carboxyl-terminal hydrolase 10 (Homo sapiens) (UniProt Q14694)
Test: ubiquitin-specific protease 10 DUB inhibitors, concentration-effect, biochemical, verification of primary screen actives (AID 1645863);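 note: potency values describe inhibition of USP10 cleavage of a fluorogenic ubiquitin substrate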
Settings: USP10 deubiquitinase enzymatic assay

Chain of Ubiquitin carboxyl-terminal hydrolase 10 (Homo sapiens) (Q14694 whole entry, looked up): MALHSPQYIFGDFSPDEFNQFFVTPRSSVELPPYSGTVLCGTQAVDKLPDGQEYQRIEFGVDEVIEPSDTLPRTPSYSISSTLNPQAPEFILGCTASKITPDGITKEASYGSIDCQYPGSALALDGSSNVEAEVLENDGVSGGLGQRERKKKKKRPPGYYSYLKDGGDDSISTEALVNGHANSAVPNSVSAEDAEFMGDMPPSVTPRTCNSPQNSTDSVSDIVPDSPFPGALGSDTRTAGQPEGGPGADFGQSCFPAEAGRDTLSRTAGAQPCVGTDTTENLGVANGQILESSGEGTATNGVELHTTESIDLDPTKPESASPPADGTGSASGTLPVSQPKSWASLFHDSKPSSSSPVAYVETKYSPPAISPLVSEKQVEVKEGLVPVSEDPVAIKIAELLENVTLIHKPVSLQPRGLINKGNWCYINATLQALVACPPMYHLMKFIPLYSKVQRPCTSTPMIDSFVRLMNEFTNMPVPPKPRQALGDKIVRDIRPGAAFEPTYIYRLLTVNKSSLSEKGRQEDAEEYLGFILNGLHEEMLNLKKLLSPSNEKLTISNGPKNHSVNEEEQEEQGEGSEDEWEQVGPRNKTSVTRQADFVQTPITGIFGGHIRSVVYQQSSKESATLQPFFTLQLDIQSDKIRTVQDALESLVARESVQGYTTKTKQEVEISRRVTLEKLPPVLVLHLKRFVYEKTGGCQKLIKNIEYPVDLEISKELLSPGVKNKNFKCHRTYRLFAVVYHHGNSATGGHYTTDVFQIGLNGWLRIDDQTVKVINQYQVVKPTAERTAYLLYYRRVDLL

Compound	IC50
Cc1ccc(Nc2nc(O)c(CC(=O)Nc3cccc(Cl)c3C)s2)cc1C	25.4 µM
COc1ccc2cc(C(=O)N3CCC(C(C)C(=O)NCc4cccc(F)c4)CC3)[nH]c2c1 (stereo not drawn)	38 µM
O=C(COC(=O)c1cc2c(s1)CCC2)c1ccc2[nH]c(=O)[nH]c2c1	> 40 µM (inactive)
COc1ccc(NC(=O)c2cc(-c3cccnc3)n[nH]2)cc1Cl	28.5 µM
C=C1C=C(CCC(=O)O)C(=O)OC1/C=C/C=C/C (stereo not drawn)	3.91 µM
CCC(=O)Nc1nc2cc(NC(=O)Nc3cc(C)cc(C)c3)ccc2s1	> 40 µM (inactive)
COCCn1c(=O)[nH]c2cc(C(=O)NCCNc3ccc([N+](=O)[O-])cc3C#N)ccc2c1=O	15.5 µM
COc1cccc(N2CCCN(C(=O)c3ccc4nc(C)[nH]c4c3)CC2)c1	> 40 µM (inactive)
O=C(/C=C/c1c(F)cccc1Cl)N1CCc2ccccc2C1	> 40 µM (inactive)
COc1ccc(NC(=O)Cn2cc(C(=O)c3ccc(Cl)cc3)c(=O)c3cc(F)ccc32)cc1	13.2 µM
Cc1cccn2c(=O)c3cc(C#N)c(=O)n(-c4cccc(C(F)(F)F)c4)c3nc12	> 40 µM (inactive)
CCCCCCCCCCCCCCCc1cc(O)cc(O)c1C(=O)O	19.3 µM
O=C(Cn1cc(C(=O)C(F)(F)F)c2cc(Br)ccc21)N1CCc2ccccc21	35.6 µM
CC(C)[C@H]1CC[C@@]2(CO2)[C@H]2C(=O)OCC(C(=O)O)=C[C@H]12	21.7 µM
Cc1ccc(S(=O)(=O)Nc2cccc(Cl)c2)cc1NC(=O)CCC(=O)c1ccc(Cl)cc1	> 40 µM (inactive)
Cn1nc(Cl)c(Cl)c1Oc1ccc(S(=O)(=O)Nc2ccc(Oc3ccc(C(F)(F)F)cn3)c(Cl)c2)cc1	13 µM
O=C(O)c1ccccc1C(=O)Nc1ccc(SC(C(=O)Nc2cccc(Cl)c2)c2ccccc2)cc1 (stereo not drawn)	14.2 µM
Cc1ncc(CO)c2c1Oc1nc(-c3cccc(Cl)c3)nc(SCC(=O)N3CCCCC3)c1C2	> 40 µM (inactive)
O=C(COc1ccc(N2CC(C(=O)NCc3ccc4c(c3)OCO4)CC2=O)cc1)Nc1ccc(Cl)cc1 (stereo not drawn)	11.8 µM
Cc1cc(C)cc(NC(=O)C2CC(=O)Nc3nc4ccccc4n32)c1 (stereo not drawn)	> 40 µM (inactive)
Cc1cc(=O)[nH]c(SCC(=O)c2cc(C)n(CCC3=CCCCC3)c2C)c1C#N	> 40 µM (inactive)
CC(C)CC1NC(=O)C2CCCN2C1=O (stereo not drawn)	> 40 µM (inactive)
O=c1[nH]c(C2CCN(S(=O)(=O)c3ccc(S(=O)(=O)NC4CC4)cc3)CC2)nc2c1nnn2Cc1c(Cl)cccc1Cl	27.5 µM
Cc1ccc2cc(-c3noc(CCC(=O)NC4CCCC4)n3)c(=O)[nH]c2c1	> 40 µM (inactive)
NS(=O)(=O)c1ccc(CNC(=O)c2ccc(Cl)c(S(=O)(=O)Nc3cc(Cl)ccc3Cl)c2)cc1	26.4 µM
C/C(=C\Cc1c(O)cc(C)c(C=O)c1O)CC[C@@]1(C)[C@H](C)CCC(=O)[C@@H]1C	> 40 µM (inactive)
COc1ccc(S(=O)(=O)N2CCc3ccccc32)cc1C(=O)Nc1ccc2c(c1)NC(=O)C(C)O2 (stereo not drawn)	> 40 µM (inactive)
CC(C)CCCCCCCCCCC(=O)N(C)[C@H](CO)C(=O)N[C@H](C)C(=O)NCC(=O)N(C)C1C(=O)N[C@@H](C)C(=O)NC(C(=O)O)Cc2ccc(O)c(c2)-c2cc1ccc2O (stereo partly drawn)	34.4 µM
Cc1[nH]c2ccc(F)cc2c(=O)c1CN1CCCCC1	> 40 µM (inactive)
CC(=O)Nc1ccc(Cc2nc(-c3ccc4c(c3)nc(C)c(=O)n4C3CCCC3)no2)cc1	> 40 µM (inactive)

Continued, values first:

IC50	Compound
> 40 µM (inactive)	O=C(c1ccco1)N1CCCC1c1nc(-c2ccccc2)n[nH]1 (stereo not drawn)
26.8 µM	Cc1ccc(Cn2cc(-c3noc(C(=O)Nc4cc(F)ccc4F)n3)nn2)cc1
32.5 µM	O=C(COc1ccc(Cl)cc1)Nc1noc(-c2ccccc2)n1
39.5 µM	O=C(/C=C/c1ccc(Br)cc1)Nc1cnc2ccccc2c1
> 40 µM (inactive)	Cc1c(NC(=O)/C=C/c2cccc(Cl)c2Cl)cccc1-n1cnnn1
> 40 µM (inactive)	O=C(NCCN1CCOCC1)c1cn2cc(Cl)ccc2n1
> 40 µM (inactive)	O=C(CCc1nnc2n(Cc3ccccc3Cl)c(=O)c3ccccc3n12)NCc1ccccc1
10.3 µM	CSc1ccc(CNC(=O)Cn2nc(C)c3c(C)n(-c4ccccc4)nc3c2=O)cc1
19.9 µM	O=C(Cn1c(=O)n(-c2ccc(CC(=O)NC3CCCC3)cc2)c(=O)c2ccccc21)Nc1ccccc1[N+](=O)[O-]
> 40 µM (inactive)	COCCCn1c(C(=O)NCc2ccccc2)cc2c(=O)n3ccccc3nc21
26.4 µM	Cc1cccc(C)c1NC(=O)CN1C(=O)CC(c2ccccc2)=Nc2ccccc21
> 40 µM (inactive)	Cc1ccc(-n2nc(C(=O)Nc3ccc(C)cn3)c3ncn(C)c(=O)c32)cc1
26.1 µM	Cc1ccc(Cn2c(=O)c3ncccc3n(CC(=O)NCc3ccc(F)cc3)c2=O)cc1
> 40 µM (inactive)	Cc1ccccc1-c1noc(-c2ccccc2OCC(=O)NC(C)C)n1
> 40 µM (inactive)	O=C(Nc1ccccc1)Nc1ccc(F)c(-c2nnc(-c3ccccc3)o2)c1
> 40 µM (inactive)	COc1cccc(-c2cc(C(=O)Nc3cc(C)n(Cc4ccc(Cl)cc4)n3)no2)c1
> 40 µM (inactive)	COc1cccc(CNc2ccc(-c3nc(-c4ccccc4)no3)nn2)c1
> 40 µM (inactive)	CCc1ccc(-n2cc(OC(C)=O)c3c2nc(C)n2c4ccccc4nc32)cc1
13.3 µM	O=C(CC1C(=O)Nc2nc(-c3ccccc3)nn21)Nc1cccc2ccccc12 (stereo not drawn)

IC50	Compound
> 40 µM (inactive)	CC(=O)c1ccc(NC(=O)CCc2c(C)c3c(C)nn(-c4ccccc4)c3n(C)c2=O)cc1
> 40 µM (inactive)	CSc1cccc(NC(=O)c2cc(-c3cccnc3)n[nH]2)c1
> 40 µM (inactive)	COc1ccc(NC(=O)c2nnc(C(=O)NCc3ccccc3F)s2)cc1
18.1 µM	Cc1ccc(NC(=O)c2nnn(CC(=O)Nc3cccc(C)c3C)c2N)cc1C
> 40 µM (inactive)	CCOc1ccccc1NC(=O)Cn1c(=O)n(CCCC(=O)NCc2ccc(C)cc2)c(=O)c2sccc21
9.45 µM	O=C(NC1(O)C(=O)c2ccccc2C1=O)c1ccc(-c2csnn2)cc1
13.2 µM	Cc1cccc(Cl)c1NC(=O)Nc1ccc(NC(=O)c2ccccc2O)cc1
29.5 µM	Cc1ccc(-n2cc(C(=O)NCCCc3ccccc3)nn2)cc1
15.6 µM	COc1ccccc1-c1nc(-c2cn(-c3ccc(F)cc3)nn2)no1
16.2 µM	CCOC(=O)c1ccc(NC(=O)Cn2c(=O)n(CC(=O)NCc3ccco3)c(=O)c3ccccc32)cc1
> 40 µM (inactive)	Cc1nc2nc(C(c3ccccc3)c3ccccc3)[nH]n2c(=O)c1Cc1ccccc1
> 40 µM (inactive)	O=C(CCCCn1c(=O)[nH]c2ccccc2c1=O)Nc1cccc(Cl)c1
22.8 µM	COc1ccc(NC(=O)Cn2cc(C(=O)c3ccccc3)c(=O)c3cc(Cl)ccc32)cc1OC
> 40 µM (inactive)	O=C(Nc1ccccc1-c1nc(-c2ccccn2)no1)c1cc(Cl)ccc1Cl
> 40 µM (inactive)	O=C(CNS(=O)(=O)c1ccc(F)cc1)N1CCCC(c2nnc3ccccn23)C1 (stereo not drawn)
> 40 µM (inactive)	Cc1cccc(-c2nnn3c2nc(NCC2CCCO2)c2ccccc23)c1 (stereo not drawn)
> 40 µM (inactive)	CCC(=O)Nc1nc2cc(NC(=O)Nc3ccc(C)cc3)ccc2s1
> 40 µM (inactive)	COc1ccc(-n2ccn3c(CCC(=O)Nc4cccc(C)c4)nnc3c2=O)cc1
> 40 µM (inactive)	CS(=O)(=O)NC1CCCN(C(=O)Nc2cccc3ccccc23)C1 (stereo not drawn)
